Assay results reported in ChEMBL document CHEMBL1764967, “Introduction of aromatic group on 4'-OH of α-GalCer manipulated NKT cell cytokine production” (Bioorg Med Chem, 2011).
Activity calls are given as the source filed them.

Columns and labels:
Mus musculus [1] = organism: Mus musculus; test: Immunostimulatory activity in mouse DN3A4-1.4 hybridoma cells expressing TCR assessed as IL2 level after 24 to 48 hrs by ELISA; format: functional
Mus musculus [2] = organism: Mus musculus; test: Immunostimulatory activity in mouse N38.2H4 hybridoma cells expressing TCR assessed as IL2 level after 24 to 48 hrs by ELISA; format: functional
Mus musculus [3] = organism: Mus musculus; test: Immunostimulatory activity in mouse DN3A4-1.2 cells expressing TCR assessed as IL2 level after 24 hrs by ELISA in presence of mouse CD1d protein; format: functional, cell-based
N38.2H4 = test: Immunostimulatory activity in mouse N38.2H4 cells expressing TCR assessed as IL2 level after 24 by ELISA in presence of mouse CD1d protein; format: functional, cell-based
Splenocyte [4] = test: Immunostimulatory activity in C57BL/6 mouse Splenocytes assessed as release of IL4 at 1000 ng/ml after 72 hrs by ELISA; format: functional, cell-based
Mus musculus [5] = organism: Mus musculus; test: Immunostimulatory activity in mouse DN3A4-1.2 hybridoma cells expressing TCR assessed as IL2 level after 24 to 48 hrs by ELISA; format: functional
Mus musculus [6] = test: Immunostimulatory activity in C57BL/6 mouse assessed as INF-gamma level in serum at 10 ug/ml, iv after 2 to 24 hrs by ELISA; format: functional, organism-based; conditions: TDE = time-dependent effect
Mus musculus [7] = test: Immunostimulatory activity in C57BL/6 mouse assessed as IL4 level in serum at 10 ug/ml, iv after 2 to 24 hrs by ELISA; format: functional, organism-based; conditions: TDE = time-dependent effect
Mus musculus [8] = test: Immunostimulatory activity in C57BL/6 mouse assessed as maximum IL4 level in serum at 10 ug/ml, iv after 4 hrs by ELISA; format: functional, organism-based
Splenocyte [9] = test: Immunostimulatory activity in C57BL/6 mouse Splenocytes assessed as release of IL4 after 72 hrs by ELISA; format: functional, cell-based
Mus musculus [10] = test: Immunostimulatory activity in C57BL/6 mouse assessed as maximum INF-gamma level in serum at 10 ug/ml, iv after 12 hrs by ELISA; format: functional, organism-based
Mus musculus [11] = test: Immunostimulatory activity in C57BL/6 mouse assessed as maximum IL4 level in serum at 10 ug/ml, iv after 2 hrs by ELISA; format: functional, organism-based
Mus musculus [12] = test: Immunostimulatory activity in C57BL/6 mouse assessed as maximum INF-gamma level in serum at 10 ug/ml, iv after 2 hrs by ELISA; format: functional, organism-based

Measured: Activity

CCCCCCCCCCCCCCCCCCCCCCCCCC(=O)N[C@@H](CO[C@H]1O[C@H](CO)[C@H](OC(=O)c2ccccc2)[C@H](O)[C@H]1O)[C@H](O)[C@H](O)CCCCCCCCCCCCCC
active: Mus musculus [1] | Mus musculus [2] | Mus musculus [3] | N38.2H4 | Splenocyte [4] | Mus musculus [5] | Mus musculus [6] tde | Mus musculus [7] tde | Mus musculus [8]

CCCCCCCCCCCCCCCCCCCCCCCCCC(=O)N[C@@H](CO[C@H]1O[C@H](CO)[C@H](OCCCc2ccccc2)[C@H](O)[C@H]1O)[C@H](O)[C@H](O)CCCCCCCCCCCCCC
active: Mus musculus [1] | Mus musculus [2] | Mus musculus [3] | N38.2H4 | Splenocyte [9] | Mus musculus [5] | Mus musculus [6] tde | Mus musculus [7] tde | Mus musculus [10] | Mus musculus [11] | Mus musculus [12]

CCCCCCCCCCCCCCCCCCCCCCCCCC(=O)N[C@@H](CO[C@H]1O[C@H](CO)[C@H](OCCc2ccccc2)[C@H](O)[C@H]1O)[C@H](O)[C@H](O)CCCCCCCCCCCCCC
active: Mus musculus [1] | Mus musculus [2] | Splenocyte [4] | Mus musculus [5] | Mus musculus [6] tde | Mus musculus [7] tde | Mus musculus [10] | Mus musculus [8]

CCCCCCCCCCCCCCCCCCCCCCCCCC(=O)N[C@@H](CO[C@H]1O[C@H](CO)[C@H](O)[C@H](O)[C@H]1O)[C@H](O)[C@H](O)CCCCCCCCCCCCCC
active: Mus musculus [3] | N38.2H4 | Mus musculus [6] tde | Mus musculus [7] tde | Mus musculus [11] | Mus musculus [12]
